Experimental data taken from paper PMC10373114, “CDK2 regulates collapsed replication fork repair in CCNE1-amplified ovarian cancer cells via homologous recombination” (NAR Cancer, 2023).

Legend:
OVCAR-3 cells [1] = assay: CyQuant proliferation assay; type: cell-based, human; settings: 5 days
Experimental: (§1) OVCAR-3, COV644, or MCF-7 cells were seeded at 1000 cells/well in 384-well black, clear bottom plates and allowed to adhere overnight at 37°C/5% CO2. The following day, cells were treated with compound in a 10-point dose response, 1:4 dilutions. After 5 days of incubation, CyQuant Direct Proliferation Assay was performed according to the manufacturer's instructions. Data were processed with GraphPad Prism using a four-parameter fit to calculate IC50.

OVCAR-3 cells [2] = assay: Proliferative recovery after HU-induced replication fork collapse (IncuCyte confluence); type: cell-based, human; settings: 500 nM, HU 2 mM 24 h pulse
Experimental: Figure S2. Replication fork stall signaling is dependent on CDK2, HR in CCNE1 - […]
(A) Cyclin E1 protein expression is strongly associated with CCNE1 copy number […]
amplification among TCGA patients with ovarian cancer (n=304) (Welch Two Sample t- […]
test, P = 2.3E-13). (B) Chemical structures of BLU1851. (C) Kinome tree for BLU1851 […]
at 3 µM (S-Score = 0.050). (D) Dose-response curves for BLU1851 enzyme inhibition […]
for indicated CDK family members. Error bars represent SD of at least duplicate independent experiments. (E) NanoBRET assessment of BLU1851 target engagement […]
in indicated CDK complexes expressed in HEK-293 cells. Error bars represent SD of at […]
least duplicate independent experiments. (F) Dose-response curve for pRb T821/826 […]
inhibition by BLU1851 in OVCAR-3 cells. Error bars represent SD of at least duplicate independent experiments. (G) Dose-response curve for pLamin S22 inhibition by BLU1851 in OVCAR-3 and COV644 cells. Error bars represent SD of duplicate independent experiments. (H) Dose-response curves in MCF-7, OVCAR-3 cells. […] (I) Quantification of pCHK1 S317 normalized to […]
allowed to recover in the presence of rabusertib. Confluence was calculated using […]
confluency at experimental endpoint. Confluence was measured by IncuCyte live cell […]
imaging and values were determined using an algorithm to detect cells from phase- […]

COV644 cells = assay: CyQuant proliferation assay; type: cell-based, human; settings: 5 days
Experimental: as §1

[3] = system: CtIP bandshift and pRPA S4/8; assay: Western blot of HR signaling after etoposide; type: cell-based; settings: 1 μM RO-3306 or 10 μM roscovitine, 24 h before 50 μM etoposide 2 h
Experimental: Cells were lysed in PhosphoSafe Lysis Buffer (EDM millipore, Cat#71296) and protein was quantified using the Pierce BCA Gold Kit (Thermo Fisher Scientific Cat#A53227). Lysate and lysis buffer were combined with 4× Loading Dye (Bio-Rad, Cat#1610747) and 2ME (Bio-Rad, Cat#1610710). Samples were loaded into Bio-Rad 4–20% Tris-glycine, 18-well SDS-PAGE (Cat#5671094). Transfer was performed using Bio-Rad dry transfer system (Trans-Blot Turbo) (Nitrocellulose membrane, 0.2 μM). Blocking was performed using LI-COR Odyssey Blocking Buffer (Cat#927–70001). Primary antibodies (CDK2 1:500, p16 1:1000, CCNE1 1:500, pRbT821 1:500, Actin R 1:2000, p21 1:1000, CCNA2 1:500, pRb S807/811 1:1000, pRb S780 1:500, CtIP 1:1000, Actin M 1:5000, pH2A.X Ser139 1:1000, pCDK2 T160 1:1000, pRPA S4/8 1:1000, CDK1 1:1000, pCDK1 Y15 1:1000, pChk1 S317 1:500, Total Chk1 1:1000, Tubulin 1:10 000) were combined with Odyssey Blocking Buffer and 0.1% Tween-20, and incubated at 4°C, rotating. Secondary antibodies were combined with Odyssey Blocking Buffer and 0.1% Tween-20 and incubated at room temperature, rotating. All secondary antibodies were diluted to 1:10 000 (LI-COR Cat#926–33212, Cat#926-33213, Cat#926-68070, Cat#926–68071, Cat#926–68076). Signals were detected using LI-COR Odyssey CLx Imaging Studio.

[4] = system: homologous recombination (3X-FLAG ACTB reporter); assay: CRISPR/Cas9 recombination assay; type: cell-based, human; settings: 25 or 250 nM BLU1851, 10 μM roscovitine; 72 h
Experimental: pBluescript SK II + and LentiCRISPR v2 plasmids were purchased from Genscript. LentiCRISPR v2 plasmids expressing single guide (sgRNA) against ACTB or scrambled sgRNA were constructed according to the depositor's instructions. To construct HR donor vectors against ACTB, sequences from −1554 to +1527 relative to the stop codon of ACTB plus 3× FLAG directly 5’ from the stop codon were synthesized and cloned into pBluescript SK II using restriction digest and ligation. Compounds were added to cells on the day of plasmid transfection. sgRNA/Cas9 and the donor plasmid were prepared in a 1:2 molar ratio; 1 μg of total DNA/well was transfected onto cells using Lipofectamine 2000 (Thermo Fisher Scientific Cat#11668019). Cells were harvested for Western Blot analysis 72 h later.

MCF-7 cells = assay: CyQuant proliferation assay; type: cell-based; settings: Homo sapiens, MCF7, 120 h, read-out: MCF-7 IC50
Experimental: as §1

kinases tested (n = 468) = assay: KINOMEscan kinome selectivity; type: binding; settings: fraction of kinases with <10% of control at 3 μM among 468 kinases tested

N=C1NC(=O)/C(=C/c2ccc(O)cc2)S1 [mirin]
sensitivity of OVCAR-3 cells compared with COV644 cells (proliferative IC50) (OVCAR-3 cells [1]): more sensitive

Cc1cnc(NC(=O)Nc2cc(Br)c(C)cc2OC[C@@H]2CNCCO2)cn1 [rabusertib]
proliferation following HU treatment (OVCAR-3 cells [2]): suppressed the ability of OVCAR-3 cells to proliferate following HU treatment

CC(C)CC(=O)c1c(Nc2ccc(Cl)cc2Cl)[nH]c2c(Cl)ccc([N+](=O)[O-])c2c1=O [JH-RE-06]
sensitivity of COV644 cells compared with OVCAR-3 cells (proliferative IC50) (COV644 cells): more sensitive

O=C1NC(=NCc2cccs2)S/C1=C\c1ccc2ncccc2c1 [RO-3306]
HR signaling across cell lines tested [3]: only a small effect in some cell lines

CC[C@H](CO)Nc1nc(NCc2ccccc2)c2ncn(C(C)C)c2n1 [roscovitine]
recombination (3X-FLAG product) [4]: inhibited recombination in all cell lines
HR signaling across cell lines tested [3]: suppressed HR signaling in most cell lines tested

CC(=O)c1c(C)c2cnc(Nc3ccc(N4CCNCC4)cn3)nc2n(C2CCCC2)c1=O [Palbociclib, reference compound]
IC50 (MCF-7 cells): 150 nM
Kinome S (10) (kinases tested (n = 468)): 0.041

COC1=C(N)C(=O)c2nc(-c3nc(C(=O)O)c(C)c(-c4ccc(OC)c(OC)c4O)c3N)ccc2C1=O [streptonigrin]
sensitivity of OVCAR-3 cells compared with COV644 cells (proliferative IC50) (OVCAR-3 cells [1]): more sensitive
